Source: patent US10870638B2, “Pyridazinone compound or its salt, and herbicide containing it” (ISHIHARA SANGYO KAISHA, LTD., priority 2016, dated 2020)

Key:
Assay type in all cases: in vivo
Conditions in all cases: active ingredient amount 31 g/ha, 14th day after application
[1] = test system: barnyardgrass (Echinochloa crus-qalli L.); assay: Test Example 1: foliar treatment, growth inhibition rate on 14th day
Method in brief: (§1)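 Visual 0–100% inhibition scoring (100 = complete kill) at 14 days after foliar treatment of soil-grown seedlings at species-specific leaf stages, with the compound sprayed as a wettable powder or emulsifiable concentrate dilution.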

[2] = test system: corn (Zea mays L.); assay: as above
Method in brief: as §1

[3] = test system: crabgrass (Digitaria sanquinalis L.); assay: as above
Method in brief: as §1

[4] = test system: green foxtail (Setaria viridis L.); assay: as above
Method in brief: (§2)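 Plants in upland soil were sprayed on the foliage at early leaf stages (wild oat 0.4–1.2, rice 0.2–2.7, green foxtail 0.5–3.2, soybean primary leaf) with wettable powder or emulsifiable concentrate formulations. Spray volume was 1,000 L/ha water containing 0.1 vol% spreader, at prescribed active-ingredient rates. Growth inhibition (0 = untreated, 100 = complete kill) was scored visually on day 14.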

[5] = test system: italian ryegrass (Lolium multiflorum Lam.); assay: as above
Method in brief: as §1

[6] = test system: redroot pigweed (Amaranthus retroflexus L.); assay: as above
Method in brief: as §1

[7] = test system: rice (Oryza sativa L.); assay: as above
Method in brief: as §2

[8] = test system: soybean (Glycine max Merr.); assay: as above
Method in brief: as §2

[9] = test system: wheat (Triticum aestivum L.); assay: as above
Method in brief: as §1

[10] = test system: wild oat (Avena fatua L.); assay: as above
Method in brief: as §2

[11] = test system: barnyardgrass (Echinochloa crus-qalli L.); assay: Test Example 2: soil application on the day after sowing, growth inhibition rate on 14th day
Description: (§3) Upland field soil was put into a 1/300,000 hectare pot, and seeds of various plants (barnyardgrass (Echinochloa crus-qalli L.), crabgrass (Digitaris sanquinalis L.), green foxtail (Setaria viridis L.), redroot pigweed (Amaranthus retroflexus L.), prickly sida (Sida spinosa L.), velvetleaf (Abutilon theophrasti MEDIC.), rice (Oryza sativa L.), corn (Zea mays L.), wheat (Triticum aestivum L.), soybean (Glycine max Merr.)) were sown. On the day after sowing, wettable powders or emulsifiable concentrates of the compounds of the present invention prepared in accordance with a conventional preparation method, were weighed so as to achieve the prescribed active ingredient amounts, and diluted with water in an amount corresponding to 1,000 liters per 1 hectare, followed by soil application by a small sprayer.
(§4) On the 14th day after the application, the state of growth of the respective plants was visually observed, and the herbicidal effect was evaluated by a growth inhibition rate (%) of 0 (equivalent to the non-treated area) to 100 (complete kill).

[12] = test system: corn (Zea mays L.); assay: as above
Description: as §3, §4

[13] = test system: crabgrass (Digitaris sanquinalis L.); assay: as above
Description: as §3, §4

[14] = test system: green foxtail (Setaria viridis L.); assay: as above
Description: as §3, §4

[15] = test system: prickly sida (Sida spinosa L.); assay: as above
Description: as §3, §4

[16] = test system: redroot pigweed (Amaranthus retroflexus L.); assay: as above
Description: as §3, §4

[17] = test system: rice (Oryza sativa L.); assay: as above
Description: as §3, §4

[18] = test system: soybean (Glycine max Merr.); assay: as above
Description: as §3, §4

[19] = test system: velvetleaf (Abutilon theophrasti MEDIC.); assay: as above
Description: as §3, §4

[20] = test system: wheat (Triticum aestivum L.); assay: as above
Description: as §3, §4

Cc1ccc(Oc2ncc(C(F)(F)F)cc2Cl)cc1-c1c(O)c(C)nn(C)c1=O [1-1]
Growth inhibition rate (%) Barnyardgrass [1]: 100% | Growth inhibition rate (%) Corn [2]: 90% | Growth inhibition rate (%) Crabgrass [3]: 95% | Growth inhibition rate (%) Green foxtail [4]: 99% | Growth inhibition rate (%) Italian ryegrass [5]: 98% | Growth inhibition rate (%) Redroot pigweed [6]: 10% | Growth inhibition rate (%) Rice [7]: 80% | Growth inhibition rate (%) Soybean [8]: 0% | Growth inhibition rate (%) Wheat [9]: 65% | Growth inhibition rate (%) Wild oat [10]: 98% | Growth inhibition rate (%) Barnyardgrass [11]: 85% | Growth inhibition rate (%) Corn [12]: 50% | Growth inhibition rate (%) Crabgrass [13]: 100% | Growth inhibition rate (%) Green foxtail [14]: 100% | Growth inhibition rate (%) Prickly sida [15]: 0% | Growth inhibition rate (%) Redroot pigweed [16]: 0% | Growth inhibition rate (%) Rice [17]: 20% | Growth inhibition rate (%) Soybean [18]: 0% | Growth inhibition rate (%) Velvetleaf [19]: 0% | Growth inhibition rate (%) Wheat [20]: 0%

CCc1ccc(Oc2ncc(C(F)(F)F)cc2Cl)cc1-c1c(O)c(C)nn(C)c1=O [1-3]
Growth inhibition rate (%) Barnyardgrass [1]: 100% | Growth inhibition rate (%) Corn [2]: 99% | Growth inhibition rate (%) Crabgrass [3]: 99% | Growth inhibition rate (%) Green foxtail [4]: 100% | Growth inhibition rate (%) Italian ryegrass [5]: 98% | Growth inhibition rate (%) Redroot pigweed [6]: 0% | Growth inhibition rate (%) Rice [7]: 75% | Growth inhibition rate (%) Soybean [8]: 15% | Growth inhibition rate (%) Wheat [9]: 15% | Growth inhibition rate (%) Wild oat [10]: 98% | Growth inhibition rate (%) Barnyardgrass [11]: 100% | Growth inhibition rate (%) Corn [12]: 90% | Growth inhibition rate (%) Crabgrass [13]: 100% | Growth inhibition rate (%) Green foxtail [14]: 100% | Growth inhibition rate (%) Prickly sida [15]: 0% | Growth inhibition rate (%) Redroot pigweed [16]: 0% | Growth inhibition rate (%) Rice [17]: 80% | Growth inhibition rate (%) Soybean [18]: 0% | Growth inhibition rate (%) Velvetleaf [19]: 0% | Growth inhibition rate (%) Wheat [20]: 35%

CCc1ccc(Sc2ncc(C(F)(F)F)cc2Cl)cc1-c1c(O)c(C)nn(C)c1=O [1-4]
Growth inhibition rate (%) Barnyardgrass [1]: 99% | Growth inhibition rate (%) Corn [2]: 93% | Growth inhibition rate (%) Crabgrass [3]: 95% | Growth inhibition rate (%) Green foxtail [4]: 100% | Growth inhibition rate (%) Italian ryegrass [5]: 95% | Growth inhibition rate (%) Redroot pigweed [6]: 10% | Growth inhibition rate (%) Rice [7]: 20% | Growth inhibition rate (%) Soybean [8]: 35% | Growth inhibition rate (%) Wheat [9]: 10% | Growth inhibition rate (%) Wild oat [10]: 99% | Growth inhibition rate (%) Barnyardgrass [11]: 100% | Growth inhibition rate (%) Corn [12]: 0% | Growth inhibition rate (%) Crabgrass [13]: 99% | Growth inhibition rate (%) Green foxtail [14]: 98% | Growth inhibition rate (%) Prickly sida [15]: 0% | Growth inhibition rate (%) Redroot pigweed [16]: 0% | Growth inhibition rate (%) Rice [17]: 40% | Growth inhibition rate (%) Soybean [18]: 0% | Growth inhibition rate (%) Velvetleaf [19]: 0% | Growth inhibition rate (%) Wheat [20]: 0%

Cc1cc(C)c(-c2c(O)c(C)nn(C)c2=O)cc1Oc1ncc(C(F)(F)F)cc1Cl [1-14]
Growth inhibition rate (%) Barnyardgrass [1]: 98% | Growth inhibition rate (%) Corn [2]: 70% | Growth inhibition rate (%) Crabgrass [3]: 93% | Growth inhibition rate (%) Green foxtail [4]: 98% | Growth inhibition rate (%) Italian ryegrass [5]: 85% | Growth inhibition rate (%) Redroot pigweed [6]: 0% | Growth inhibition rate (%) Rice [7]: 80% | Growth inhibition rate (%) Soybean [8]: 0% | Growth inhibition rate (%) Wheat [9]: 0% | Growth inhibition rate (%) Wild oat [10]: 95% | Growth inhibition rate (%) Barnyardgrass [11]: 99% | Growth inhibition rate (%) Corn [12]: 0% | Growth inhibition rate (%) Crabgrass [13]: 83% | Growth inhibition rate (%) Green foxtail [14]: 93% | Growth inhibition rate (%) Prickly sida [15]: 0% | Growth inhibition rate (%) Redroot pigweed [16]: 0% | Growth inhibition rate (%) Rice [17]: 0% | Growth inhibition rate (%) Soybean [18]: 0% | Growth inhibition rate (%) Velvetleaf [19]: 0% | Growth inhibition rate (%) Wheat [20]: 0%

CC(=O)Oc1c(C)nn(C)c(=O)c1-c1cc(Oc2ncc(C(F)(F)F)cc2Cl)ccc1C [1-40]
Growth inhibition rate (%) Barnyardgrass [1]: 100% | Growth inhibition rate (%) Corn [2]: 100% | Growth inhibition rate (%) Crabgrass [3]: 99% | Growth inhibition rate (%) Green foxtail [4]: 100% | Growth inhibition rate (%) Italian ryegrass [5]: 100% | Growth inhibition rate (%) Redroot pigweed [6]: 40% | Growth inhibition rate (%) Rice [7]: 80% | Growth inhibition rate (%) Soybean [8]: 10% | Growth inhibition rate (%) Wheat [9]: 93% | Growth inhibition rate (%) Wild oat [10]: 98% | Growth inhibition rate (%) Barnyardgrass [11]: 100% | Growth inhibition rate (%) Corn [12]: 30% | Growth inhibition rate (%) Crabgrass [13]: 100% | Growth inhibition rate (%) Green foxtail [14]: 100% | Growth inhibition rate (%) Prickly sida [15]: 0% | Growth inhibition rate (%) Redroot pigweed [16]: 0% | Growth inhibition rate (%) Rice [17]: 60% | Growth inhibition rate (%) Soybean [18]: 0% | Growth inhibition rate (%) Velvetleaf [19]: 0% | Growth inhibition rate (%) Wheat [20]: 0%

CCOC(=O)Oc1c(C)nn(C)c(=O)c1-c1cc(Oc2ncc(C(F)(F)F)cc2Cl)ccc1C [1-41]
Growth inhibition rate (%) Barnyardgrass [1]: 100% | Growth inhibition rate (%) Corn [2]: 98% | Growth inhibition rate (%) Crabgrass [3]: 99% | Growth inhibition rate (%) Green foxtail [4]: 100% | Growth inhibition rate (%) Italian ryegrass [5]: 100% | Growth inhibition rate (%) Redroot pigweed [6]: 10% | Growth inhibition rate (%) Rice [7]: 80% | Growth inhibition rate (%) Soybean [8]: 0% | Growth inhibition rate (%) Wheat [9]: 98% | Growth inhibition rate (%) Wild oat [10]: 99% | Growth inhibition rate (%) Barnyardgrass [11]: 100% | Growth inhibition rate (%) Corn [12]: 20% | Growth inhibition rate (%) Crabgrass [13]: 100% | Growth inhibition rate (%) Green foxtail [14]: 100% | Growth inhibition rate (%) Prickly sida [15]: 0% | Growth inhibition rate (%) Redroot pigweed [16]: 0% | Growth inhibition rate (%) Rice [17]: 0% | Growth inhibition rate (%) Soybean [18]: 0% | Growth inhibition rate (%) Velvetleaf [19]: 0% | Growth inhibition rate (%) Wheat [20]: 0%

CC(=O)Oc1c(C)nn(C)c(=O)c1-c1cc(Sc2ncc(C(F)(F)F)cc2Cl)ccc1C [1-42]
Growth inhibition rate (%) Barnyardgrass [1]: 100% | Growth inhibition rate (%) Corn [2]: 100% | Growth inhibition rate (%) Crabgrass [3]: 100% | Growth inhibition rate (%) Green foxtail [4]: 100% | Growth inhibition rate (%) Italian ryegrass [5]: 100% | Growth inhibition rate (%) Redroot pigweed [6]: 10% | Growth inhibition rate (%) Rice [7]: 88% | Growth inhibition rate (%) Soybean [8]: 10% | Growth inhibition rate (%) Wheat [9]: 100% | Growth inhibition rate (%) Wild oat [10]: 100% | Growth inhibition rate (%) Barnyardgrass [11]: 100% | Growth inhibition rate (%) Corn [12]: 40% | Growth inhibition rate (%) Crabgrass [13]: 100% | Growth inhibition rate (%) Green foxtail [14]: 100% | Growth inhibition rate (%) Prickly sida [15]: 0% | Growth inhibition rate (%) Redroot pigweed [16]: 0% | Growth inhibition rate (%) Rice [17]: 80% | Growth inhibition rate (%) Soybean [18]: 0% | Growth inhibition rate (%) Velvetleaf [19]: 0% | Growth inhibition rate (%) Wheat [20]: 0%

CCc1ccc(Oc2ncc(C(F)(F)F)cc2Cl)cc1-c1c(OC(C)=O)c(C)nn(C)c1=O [1-45]
Growth inhibition rate (%) Barnyardgrass [1]: 100% | Growth inhibition rate (%) Corn [2]: 100% | Growth inhibition rate (%) Crabgrass [3]: 100% | Growth inhibition rate (%) Green foxtail [4]: 100% | Growth inhibition rate (%) Italian ryegrass [5]: 100% | Growth inhibition rate (%) Redroot pigweed [6]: 10% | Growth inhibition rate (%) Rice [7]: 99% | Growth inhibition rate (%) Soybean [8]: 10% | Growth inhibition rate (%) Wheat [9]: 99% | Growth inhibition rate (%) Wild oat [10]: 100% | Growth inhibition rate (%) Barnyardgrass [11]: 100% | Growth inhibition rate (%) Corn [12]: 88% | Growth inhibition rate (%) Crabgrass [13]: 100% | Growth inhibition rate (%) Green foxtail [14]: 100% | Growth inhibition rate (%) Prickly sida [15]: 0% | Growth inhibition rate (%) Redroot pigweed [16]: 0% | Growth inhibition rate (%) Rice [17]: 30% | Growth inhibition rate (%) Soybean [18]: 0% | Growth inhibition rate (%) Velvetleaf [19]: 0% | Growth inhibition rate (%) Wheat [20]: 20%
